# Key:
# pAKT in H1299 cells = test: pAKT status DM50, H1299; assay type: cell-based; conditions: Homo sapiens, NCI-H1299; H1299, non-small cell lung cancer
# Experimental: PC3 cells were obtained from the American Type Culture Collection (ATCC, Manassas, Va., Cat.# CRL-1435). Two million cells from the prostate cancer line PC3 were placed into 6 cm culture dishes and allowed to grow in complete RPMI 1640 media (Invitrogen, Carlsbad, Calif., Cat.#22400-105) with 10% fetal bovine serum (Invitrogen, Carlsbad, Calif., Cat.#10438-026). After this time period the cells were serum starved for 5 hours followed by application of the test compound. Test compound was added as a DMSO (dimethyl sulfoxide) solution such that the final DMSO concentration in the cell media was less than or equal to 0.2% by volume After 30 minutes of exposure the growth factor stimulant, human IGF-1 (PeproTech, Inc., Rocky Hill, N.J., Cat.#100-11), was added to a final concentration of 0.1 μg/ml in each well. After 30 minutes of IGF-1 exposure, cells were removed from the media and cell lysates were prepared using RIPA Lysis buffer (Upstate, Lake Placid, N.Y., Cat.#20-188), keeping on ice. The pAKT serine 473 level was measured in duplicate samples of the cell lysates using commercially available assays such as the Pathscan® Sandwich ELISA kit for Ser473 pAKT (Cell Signaling, Danvers, Mass., Cat.#7160). A SpectraMax Plus spectrophotometric plate reader (Molecular Devices, Sunnydale, Calif.) was used to measure the optical density signal for pAKT at 450 nm (OD450 nm). The pAKT OD450 nm readings were normalized by total protein amount in the cell lysates determined by standard methods.
# Concentrations of test compounds required to inhibit IGF stimulated pAKT levels to 50% of maximum levels in PC3 cells (termed DM50 for decreased maximum 50%) were calculated by inputting the dose responses in the software package GraphPad Prism4 (GraphPad Software, Inc., San Diego, Calif.).
# Several other cancer cell lines were obtained from ATCC and grown according to the supplier's recommendations and treated with test compounds. DM50 values listed in Table 6 below were obtained by the methods described in Example A: […]
# PC3 cells = test: PC3 prostate cancer cell proliferation (WST); assay type: cell-based; conditions: Homo sapiens, PC-3; 72 hours; read-out: IC50 PC3 Proliferation
# HL60 (AML) = test: Cell proliferation MTS assay, HL60; assay type: cell-based; conditions: Homo sapiens, HL-60, 72 hours
# Experimental: (§1) All cell lines were obtained from ATCC and cultured and plated according to ATCC recommendations. Cells were cultured in complete culture media containing 10% heat-inactivated fetal bovine serum (FBS, Mediatech, Inc.). For adherent cell lines, once cells reached 70% confluency, they were trypsinized and resuspended in phenol red free RPMI media (Mediatech, Inc.) plus 10% heat-inactivated FBS (assay buffer) and 100 μL aliquots were plated into each well of 96-well microtiter plates at a final density of 1,000-2,000 cells/well. Cells were incubated overnight at 37° C. in 5% CO2, and treated with test compounds on the next day. For suspension cell lines, cells were resuspended in assay buffer, plated into 96-well microtiter plates at a density of 10^4-10^5 cells/well/100 μL, and treatment was started on the same day. Cells were treated with vehicle (DMSO) and test compounds for 72 hours at concentration of 100, 70, 40, 20, 10, 5, 2.5, 1.25, 0.5 and 0.2 μM in four replicates at 37° C. in 5% CO2.
# 786-0 cells = test: Apoptosis in 786-0 cells (Annexin V / PI flow cytometry); assay type: cell-based; parameters: unit not given here; conditions: overnight
# Experimental: In order to evaluate the mechanism of action of these compounds, 786-0 cell cultures were treated with Cpd 9 or Cpd 28 at different concentrations overnight and then analyzed for apoptotic induction. The cells were stained using standard methods with Annexin V and/or Propedium iodine (PI) at room temperature for 15 minutes. Apoptotic cells at early (Annexin V positive) or late stage (both Annexin V and PI positive) were detected by Flow Cytometry.
# [1] = system: 786-0 renal cell carcinoma xenograft; test: 786-0 renal cell carcinoma xenograft mouse model; assay type: in vivo, nude mice; conditions: ip, 3×/wk for 4 weeks
# Experimental: To determine if Cpd 9 has anti-tumor effects, an in vivo study was conducted in a 786-0 renal cell carcinoma xenograft model, 786-0 cells (2×10^6) were inoculated subcutaneously into nude mice in the flank area and tumor growth was monitored with calipers via external measurements. Tumor volume was calculated using the formula volume=(length×width^2)/2. When the average tumor volume reached 400 mm^3, mice were randomly divided into 2 groups and treated with either DMSO (control) or Cpd 9 (25 mg/kg, ip) three times weekly (M, W, F) for two weeks.
# To determine if Cpd 28 has anti-tumor effects, an in vivo study was conducted in a 786-0 renal cell carcinoma xenograft model, 786-0 cells (2×10^6) were inoculated subcutaneously into nude mice in the flank area and tumor growth was monitored with calipers via external measurements. Tumor volume was calculated using the formula volume=(length×width^2)/2. Treatment was started when tumors reached an average volume of 300 mm^3. […] DMSO was used as control since this was the vehicle the compounds were dissolved in. Tumor size was monitored twice weekly and body weight was monitored once weekly. Means and standard deviations were calculated and the Student t test method was used for statistical comparisons.
# 786-O (Renal) = test: Cell proliferation MTS assay, 786-O; assay type: cell-based; conditions: Homo sapiens, 786-0, 72 hours
# Experimental: as §1
compound,measurement,setting,value
"O=c1cc(N2CCOCC2)oc2c(-c3ccc4c(c3)OCCO4)csc12 [Compound 28, 3-(2,3-dihydrobenzo[b][1,4]dioxin-6-yl)-5-morpholino-7H-thieno[3,2-b]pyran-7-one]",IC50,pAKT in H1299 cells,0.886 µM
same,IC50,PC3 cells,1.3 to 1.91 µM
same,IC50,HL60 (AML),3.06 µM
same,Early stage apoptotic cells,786-0 cells; 5 μM,10.4
same,Late stage apoptotic cells,786-0 cells; 5 μM,11.56
same,Total Apoptotic Cells,786-0 cells; 5 μM,21.96
same,Early stage apoptotic cells,786-0 cells; 10 μM,16.45
same,Late stage apoptotic cells,786-0 cells; 10 μM,15.43
same,Total Apoptotic Cells,786-0 cells; 10 μM,31.88
same,tumor growth inhibition compared to control,[1]; 25 mg/kg,70%
same,body weight change or other abnormalities,[1]; 50 mg/kg,no significant body weight change or other abnormalities noted
same,tumor growth inhibition compared to control,[1]; 50 mg/kg,81%
same,IC50,786-O (Renal),2.82 µM

# Reference: patent US9981983B2, “Thienopyranones as kinase inhibitors” (SignalRx Pharmaceuticals, Inc., priority 2008, dated 2018)
